From PubChem BioAssay (NCI)
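Assay format: 96-well plates, 48-hour exposure. TGI denotes the concentration required for complete inhibition of growth.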

Columns and labels:
Experiment in all cases: growth of human tumour cells (NCI), 48 h
SF-268 CNS = system: SF-268 CNS
COLO 205 colon = system: COLO 205 colon
SNB-19 CNS = system: SNB-19 CNS
CAKI-1 renal = system: CAKI-1 renal
EKVX NSCLC = system: EKVX NSCLC
LOX IMVI melanoma = system: LOX IMVI melanoma
HT29 colon = system: HT29 colon
UACC-62 melanoma = system: UACC-62 melanoma
SW-620 colon = system: SW-620 colon
SF-539 CNS = system: SF-539 CNS
HOP-62 NSCLC = system: HOP-62 NSCLC
OVCAR-8 ovarian = system: OVCAR-8 ovarian
MALME-3M melanoma = system: MALME-3M melanoma
K-562 leukemia = system: K-562 leukemia
IGROV1 ovarian = system: IGROV1 ovarian
NCI-H226 lung = system: NCI-H226 lung
RPMI-8226 leukemia = system: RPMI-8226 leukemia
MDA-MB-435 = system: MDA-MB-435
MDA-MB-231 breast = system: MDA-MB-231 breast
ACHN renal = system: ACHN renal
NCI-H23 lung = system: NCI-H23 lung
HCT-116 colon = system: HCT-116 colon
DU-145 prostate = system: DU-145 prostate
U251 CNS = system: U251 CNS
SF-295 CNS = system: SF-295 CNS
OVCAR-4 ovarian = system: OVCAR-4 ovarian
NCI-H460 lung = system: NCI-H460 lung
UO-31 renal = system: UO-31 renal
NCI/ADR-RES ovarian = system: NCI/ADR-RES ovarian
UACC-257 melanoma = system: UACC-257 melanoma
BT-549 breast = system: BT-549 breast
786-0 renal = system: 786-0 renal
HCT-15 colon = system: HCT-15 colon
SK-OV-3 ovarian = system: SK-OV-3 ovarian
T-47D breast = system: T-47D breast
M14 melanoma = system: M14 melanoma
A549 NSCLC = system: A549 NSCLC
OVCAR-5 ovarian = system: OVCAR-5 ovarian
MCF7 breast = system: MCF7 breast
TK-10 renal = system: TK-10 renal
SK-MEL-5 melanoma = system: SK-MEL-5 melanoma
KM12 colon = system: KM12 colon
OVCAR-3 ovarian = system: OVCAR-3 ovarian
SR leukemia = system: SR leukemia
PC-3 prostate = system: PC-3 prostate
SK-MEL-2 melanoma = system: SK-MEL-2 melanoma
HCC-2998 colon = system: HCC-2998 colon
SNB-75 CNS = system: SNB-75 CNS
HOP-92 NSCLC = system: HOP-92 NSCLC
MOLT-4 leukemia = system: MOLT-4 leukemia
A498 renal = system: A498 renal
RXF 393 renal = system: RXF 393 renal
SK-MEL-28 melanoma = system: SK-MEL-28 melanoma
CCRF-CEM leukemia = system: CCRF-CEM leukemia

Measured: TGI

COCP1(=S)OC(C)CCN1C(C)C (stereo unspecified)
not listed: SNB-75 CNS | HOP-92 NSCLC | MOLT-4 leukemia | A498 renal | RXF 393 renal | SK-MEL-28 melanoma | CCRF-CEM leukemia
> 100 µM: all other assays above

COc1ccc(C2c3c(n(C)c(=O)n(C)c3=O)OC(N(C)C)(N(C)C)C2(F)F)cc1 (stereo unspecified)
not listed: HT29 colon | OVCAR-8 ovarian | MALME-3M melanoma | IGROV1 ovarian | SR leukemia
> 100 µM: all other assays above
